Test [1] deals with Cyclin-dependent kinase 8 (Homo sapiens) (UniProt P49336). As to the kind of experiment: Inhibition of CDK8 (unknown origin) at 1 uM by Ambit Kinomescan binding assay relative to control.
For test [2], the system named is Epidermal growth factor receptor (Homo sapiens), P00533 [UNDEFINED MUTATION]. The test is described as follows: Inhibition of EGFR S752-I759del mutant (unknown origin) at 1 uM by Ambit Kinomescan binding assay relative to control.
Test [3] addresses Tyrosine-protein kinase JAK3 (Homo sapiens) (UniProt P52333). The test is described as follows: Inhibition of JAK3 JH1 catalytic domain (unknown origin) at 1 uM by Ambit Kinomescan binding assay relative to control.
The target of test [4] is Ephrin type-A receptor 1 (Homo sapiens) (UniProt P21709). As to the kind of experiment: Inhibition of EPHA1 (unknown origin) at 1 uM by Ambit Kinomescan binding assay relative to control; values are per cent of control.
For test [5], the target named is Mitogen-activated protein kinase 11 (Homo sapiens) (UniProt Q15759). The test is described as follows: Inhibition of p38 beta (unknown origin) at 1 uM by Ambit Kinomescan binding assay relative to control; values are per cent of control.
Test [6] concerns the target Activin receptor type-2B (Homo sapiens) (UniProt Q13705). The test is described as follows: Inhibition of ACVR2B (unknown origin) at 10 uM by Ambit Kinomescan binding assay.
The target of test [7] is Calcium/calmodulin-dependent protein kinase kinase 1 (Homo sapiens) (UniProt Q8N5S9). The test is described as follows: Inhibition of CAMKK1 (unknown origin) at 10 uM by Ambit Kinomescan binding assay.
In test [8] the test system is Receptor-type tyrosine-protein kinase FLT3 (Homo sapiens), P36888 [K663Q]. The test is described as follows: Inhibition of FLT3 K663Q mutant (unknown origin) at 10 uM by Ambit Kinomescan binding assay relative to control.
In test [9] the target is T1, Serine/threonine-protein kinase LATS2 (Homo sapiens) (UniProt Q9NRM7).
T1 sequence (whole entry): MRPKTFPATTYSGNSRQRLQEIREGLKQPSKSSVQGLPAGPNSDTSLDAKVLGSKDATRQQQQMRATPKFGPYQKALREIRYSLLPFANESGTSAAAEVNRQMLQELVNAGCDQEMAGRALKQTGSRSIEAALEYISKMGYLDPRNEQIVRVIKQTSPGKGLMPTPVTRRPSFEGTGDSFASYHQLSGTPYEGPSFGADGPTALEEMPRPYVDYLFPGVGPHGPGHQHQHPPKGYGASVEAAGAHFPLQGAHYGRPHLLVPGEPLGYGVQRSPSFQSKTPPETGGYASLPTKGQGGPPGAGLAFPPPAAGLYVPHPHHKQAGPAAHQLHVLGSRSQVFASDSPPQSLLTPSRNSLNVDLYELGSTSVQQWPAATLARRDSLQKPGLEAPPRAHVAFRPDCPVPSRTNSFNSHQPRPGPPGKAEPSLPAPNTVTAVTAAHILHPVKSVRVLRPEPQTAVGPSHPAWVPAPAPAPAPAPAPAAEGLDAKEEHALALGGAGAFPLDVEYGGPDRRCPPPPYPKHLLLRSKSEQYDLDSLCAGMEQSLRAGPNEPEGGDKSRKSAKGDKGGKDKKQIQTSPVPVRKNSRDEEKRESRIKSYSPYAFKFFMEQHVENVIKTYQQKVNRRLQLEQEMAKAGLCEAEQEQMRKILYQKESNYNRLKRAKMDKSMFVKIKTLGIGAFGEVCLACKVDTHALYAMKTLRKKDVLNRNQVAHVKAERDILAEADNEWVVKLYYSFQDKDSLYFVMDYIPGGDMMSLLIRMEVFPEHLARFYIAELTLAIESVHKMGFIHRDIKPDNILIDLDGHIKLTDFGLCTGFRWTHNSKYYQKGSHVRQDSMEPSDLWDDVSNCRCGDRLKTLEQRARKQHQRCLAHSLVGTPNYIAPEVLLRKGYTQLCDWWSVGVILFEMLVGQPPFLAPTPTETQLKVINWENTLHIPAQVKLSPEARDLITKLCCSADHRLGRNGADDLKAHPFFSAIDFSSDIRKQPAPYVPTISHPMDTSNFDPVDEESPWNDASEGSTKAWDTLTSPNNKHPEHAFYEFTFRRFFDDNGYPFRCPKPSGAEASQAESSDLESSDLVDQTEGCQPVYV
As to the kind of experiment: Inhibition of LATS2 (unknown origin) at 10 uM by Ambit Kinomescan binding assay relative to control.

Test [10] has as its target MAST1/MAST2 (Homo sapiens) (UniProt Q9Y2H9+Q6P0Q8). The test is described as follows: Inhibition of MAST1/2 K2 labeling site in human Huh-7 cells at 10 uM by KiNativ Profiling analysis relative to control. Type of test: cell-based.
Test [11] addresses Cyclin-dependent kinase 11B (Homo sapiens) (UniProt P21127). The test is described as follows: Inhibition of CDC2L1 (unknown origin) at 10 uM by Ambit Kinomescan binding assay relative to control; values are per cent of control.
Test [12] deals with MAP/microtubule affinity-regulating kinase 3 (Homo sapiens) (UniProt P27448). The test is described as follows: Inhibition of MARK3 Lys1 labeling site in human Huh-7 cell lysate at 1 uM by KiNativ Profiling analysis relative to control. Type of test: subcellular.
Test [13] addresses T2, Mitogen-activated protein kinase kinase kinase kinase 2 (Homo sapiens) (UniProt Q12851).
T2 sequence (whole entry): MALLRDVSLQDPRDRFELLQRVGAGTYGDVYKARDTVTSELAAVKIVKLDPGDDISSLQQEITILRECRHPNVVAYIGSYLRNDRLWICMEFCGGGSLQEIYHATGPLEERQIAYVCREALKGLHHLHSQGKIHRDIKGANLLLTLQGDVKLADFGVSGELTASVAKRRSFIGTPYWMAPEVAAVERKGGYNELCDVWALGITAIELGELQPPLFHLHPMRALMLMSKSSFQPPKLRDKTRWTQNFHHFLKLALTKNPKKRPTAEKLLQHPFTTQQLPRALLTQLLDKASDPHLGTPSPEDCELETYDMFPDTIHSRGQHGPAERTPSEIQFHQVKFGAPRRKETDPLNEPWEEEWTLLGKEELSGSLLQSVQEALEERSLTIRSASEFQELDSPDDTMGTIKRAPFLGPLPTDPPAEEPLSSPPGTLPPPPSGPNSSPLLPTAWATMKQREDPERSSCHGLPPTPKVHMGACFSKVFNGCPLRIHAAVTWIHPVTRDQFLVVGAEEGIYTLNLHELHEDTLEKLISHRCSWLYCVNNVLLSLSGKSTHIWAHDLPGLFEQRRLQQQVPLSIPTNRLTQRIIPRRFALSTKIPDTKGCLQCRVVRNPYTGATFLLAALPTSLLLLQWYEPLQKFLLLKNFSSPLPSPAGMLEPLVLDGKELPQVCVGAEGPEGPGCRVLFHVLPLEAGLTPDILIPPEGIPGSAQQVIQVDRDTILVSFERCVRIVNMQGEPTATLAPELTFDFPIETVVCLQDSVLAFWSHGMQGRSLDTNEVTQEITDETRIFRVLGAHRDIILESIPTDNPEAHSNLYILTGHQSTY
As to the kind of experiment: Inhibition of MAP4K2 (GCK) Lys1 labeling site in human Huh-7 cells at 1 uM by KiNativ Profiling analysis relative to control. The format is cell-based.

The source made the active and inactive calls. No cut-off for these calls is given here.

As a reminder, the inhibition is the share of the control response that was lost under treatment. For orientation: residual activity means the activity still measured, relative to the control. A low value points to a large loss of activity.

Sequence of Tyrosine-protein kinase JAK3 (Homo sapiens) (P52333 whole entry, the tested form may be a part): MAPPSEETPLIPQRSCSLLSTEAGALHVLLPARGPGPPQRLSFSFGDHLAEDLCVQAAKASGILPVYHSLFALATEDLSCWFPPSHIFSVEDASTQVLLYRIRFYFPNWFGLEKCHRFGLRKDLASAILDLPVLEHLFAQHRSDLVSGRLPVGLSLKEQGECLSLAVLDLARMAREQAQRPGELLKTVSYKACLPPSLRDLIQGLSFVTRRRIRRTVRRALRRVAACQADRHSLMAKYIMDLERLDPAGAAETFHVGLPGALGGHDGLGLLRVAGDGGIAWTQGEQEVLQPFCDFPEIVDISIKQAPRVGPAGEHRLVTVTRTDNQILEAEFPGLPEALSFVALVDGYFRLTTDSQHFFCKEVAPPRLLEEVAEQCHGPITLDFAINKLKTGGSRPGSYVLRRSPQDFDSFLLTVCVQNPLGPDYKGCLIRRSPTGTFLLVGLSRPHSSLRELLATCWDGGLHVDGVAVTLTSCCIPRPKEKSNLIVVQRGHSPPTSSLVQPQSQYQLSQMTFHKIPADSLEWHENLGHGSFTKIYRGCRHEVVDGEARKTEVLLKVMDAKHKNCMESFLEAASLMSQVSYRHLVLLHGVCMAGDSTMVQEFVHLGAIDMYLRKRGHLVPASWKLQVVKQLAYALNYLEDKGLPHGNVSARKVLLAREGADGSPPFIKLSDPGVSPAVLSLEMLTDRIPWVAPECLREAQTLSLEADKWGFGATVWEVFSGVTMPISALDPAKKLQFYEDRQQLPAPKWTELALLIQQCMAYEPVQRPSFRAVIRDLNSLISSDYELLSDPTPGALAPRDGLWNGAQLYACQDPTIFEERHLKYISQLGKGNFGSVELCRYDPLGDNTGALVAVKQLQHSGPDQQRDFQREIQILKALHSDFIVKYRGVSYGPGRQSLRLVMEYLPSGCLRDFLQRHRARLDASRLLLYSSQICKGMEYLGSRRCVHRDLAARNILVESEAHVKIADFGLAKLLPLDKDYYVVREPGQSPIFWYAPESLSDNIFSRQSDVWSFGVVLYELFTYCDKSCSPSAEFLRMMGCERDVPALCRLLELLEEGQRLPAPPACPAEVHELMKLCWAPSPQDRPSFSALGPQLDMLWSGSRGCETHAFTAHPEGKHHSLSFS
Sequence of MAP/microtubule affinity-regulating kinase 3 (Homo sapiens) (P27448 whole entry, looked up): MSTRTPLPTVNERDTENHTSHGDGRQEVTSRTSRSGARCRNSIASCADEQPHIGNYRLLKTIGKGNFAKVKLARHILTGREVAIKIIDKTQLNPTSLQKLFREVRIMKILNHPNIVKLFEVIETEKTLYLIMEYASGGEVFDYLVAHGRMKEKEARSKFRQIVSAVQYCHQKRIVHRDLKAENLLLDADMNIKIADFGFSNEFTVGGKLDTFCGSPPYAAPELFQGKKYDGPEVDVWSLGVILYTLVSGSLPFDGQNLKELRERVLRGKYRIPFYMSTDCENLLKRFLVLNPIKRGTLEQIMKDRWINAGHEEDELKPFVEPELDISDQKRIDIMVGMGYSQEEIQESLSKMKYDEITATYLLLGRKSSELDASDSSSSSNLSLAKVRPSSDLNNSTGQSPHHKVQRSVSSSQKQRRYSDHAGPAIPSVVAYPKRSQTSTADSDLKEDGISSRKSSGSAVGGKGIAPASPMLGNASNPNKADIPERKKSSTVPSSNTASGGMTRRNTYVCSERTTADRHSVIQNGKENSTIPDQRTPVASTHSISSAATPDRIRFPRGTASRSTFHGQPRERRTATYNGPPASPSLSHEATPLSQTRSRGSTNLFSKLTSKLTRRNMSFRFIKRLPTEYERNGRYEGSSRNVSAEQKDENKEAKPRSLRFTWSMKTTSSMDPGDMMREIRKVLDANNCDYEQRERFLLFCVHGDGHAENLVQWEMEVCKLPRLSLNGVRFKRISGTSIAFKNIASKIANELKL
Sequence of Mitogen-activated protein kinase 11 (Homo sapiens) (Q15759 whole entry): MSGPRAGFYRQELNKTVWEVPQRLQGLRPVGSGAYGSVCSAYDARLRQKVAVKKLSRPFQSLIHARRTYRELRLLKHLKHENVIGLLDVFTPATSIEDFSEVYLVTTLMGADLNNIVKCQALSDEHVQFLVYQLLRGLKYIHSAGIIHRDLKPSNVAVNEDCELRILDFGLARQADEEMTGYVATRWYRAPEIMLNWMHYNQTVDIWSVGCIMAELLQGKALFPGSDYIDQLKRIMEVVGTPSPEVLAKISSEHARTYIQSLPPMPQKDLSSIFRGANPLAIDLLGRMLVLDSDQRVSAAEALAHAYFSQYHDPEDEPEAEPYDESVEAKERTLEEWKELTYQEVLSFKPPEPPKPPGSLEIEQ
Sequence of Ephrin type-A receptor 1 (Homo sapiens) (P21709 whole entry): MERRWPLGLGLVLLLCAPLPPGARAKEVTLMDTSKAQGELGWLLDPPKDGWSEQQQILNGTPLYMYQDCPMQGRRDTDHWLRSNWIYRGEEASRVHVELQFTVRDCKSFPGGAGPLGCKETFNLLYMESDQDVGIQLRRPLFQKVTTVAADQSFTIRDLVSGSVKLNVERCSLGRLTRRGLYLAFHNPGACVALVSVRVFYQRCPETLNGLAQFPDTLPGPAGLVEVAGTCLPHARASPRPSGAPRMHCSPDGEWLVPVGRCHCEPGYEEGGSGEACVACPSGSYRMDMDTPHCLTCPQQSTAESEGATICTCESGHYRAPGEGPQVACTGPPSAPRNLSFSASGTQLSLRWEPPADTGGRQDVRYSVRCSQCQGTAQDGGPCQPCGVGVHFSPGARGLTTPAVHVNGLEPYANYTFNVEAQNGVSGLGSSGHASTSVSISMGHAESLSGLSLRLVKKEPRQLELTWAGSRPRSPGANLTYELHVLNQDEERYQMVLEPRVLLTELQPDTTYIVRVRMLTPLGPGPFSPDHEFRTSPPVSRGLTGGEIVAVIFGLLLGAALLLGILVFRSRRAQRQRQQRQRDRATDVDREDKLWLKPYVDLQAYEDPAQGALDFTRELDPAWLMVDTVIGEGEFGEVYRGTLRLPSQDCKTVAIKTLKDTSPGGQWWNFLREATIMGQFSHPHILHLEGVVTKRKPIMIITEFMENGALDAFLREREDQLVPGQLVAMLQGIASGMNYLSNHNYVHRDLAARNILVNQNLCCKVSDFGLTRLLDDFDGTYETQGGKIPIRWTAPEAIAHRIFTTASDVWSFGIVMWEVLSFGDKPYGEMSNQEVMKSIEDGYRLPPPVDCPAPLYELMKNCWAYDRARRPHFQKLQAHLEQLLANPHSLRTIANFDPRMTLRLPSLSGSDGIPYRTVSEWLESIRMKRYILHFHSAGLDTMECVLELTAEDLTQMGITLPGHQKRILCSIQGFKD
Sequence of Calcium/calmodulin-dependent protein kinase kinase 1 (Homo sapiens) (Q8N5S9 whole entry, looked up): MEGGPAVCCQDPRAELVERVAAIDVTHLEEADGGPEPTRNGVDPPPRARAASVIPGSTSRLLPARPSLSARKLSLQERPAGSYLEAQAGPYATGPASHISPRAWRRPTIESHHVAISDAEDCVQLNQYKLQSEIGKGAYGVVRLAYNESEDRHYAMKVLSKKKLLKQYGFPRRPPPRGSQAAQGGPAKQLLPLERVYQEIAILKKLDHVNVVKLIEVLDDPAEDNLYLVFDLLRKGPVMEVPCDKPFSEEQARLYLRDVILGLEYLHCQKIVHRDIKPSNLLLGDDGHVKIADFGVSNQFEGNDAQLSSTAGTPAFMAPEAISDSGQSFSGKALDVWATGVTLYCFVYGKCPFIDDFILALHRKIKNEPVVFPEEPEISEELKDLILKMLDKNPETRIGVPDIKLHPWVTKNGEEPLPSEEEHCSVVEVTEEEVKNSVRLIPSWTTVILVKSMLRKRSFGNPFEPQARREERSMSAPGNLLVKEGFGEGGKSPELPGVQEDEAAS
Sequence of Epidermal growth factor receptor (Homo sapiens), P00533 [UNDEFINED MUTATION] (P00533 whole entry, looked up, stated change not applied, the tested form may be a part): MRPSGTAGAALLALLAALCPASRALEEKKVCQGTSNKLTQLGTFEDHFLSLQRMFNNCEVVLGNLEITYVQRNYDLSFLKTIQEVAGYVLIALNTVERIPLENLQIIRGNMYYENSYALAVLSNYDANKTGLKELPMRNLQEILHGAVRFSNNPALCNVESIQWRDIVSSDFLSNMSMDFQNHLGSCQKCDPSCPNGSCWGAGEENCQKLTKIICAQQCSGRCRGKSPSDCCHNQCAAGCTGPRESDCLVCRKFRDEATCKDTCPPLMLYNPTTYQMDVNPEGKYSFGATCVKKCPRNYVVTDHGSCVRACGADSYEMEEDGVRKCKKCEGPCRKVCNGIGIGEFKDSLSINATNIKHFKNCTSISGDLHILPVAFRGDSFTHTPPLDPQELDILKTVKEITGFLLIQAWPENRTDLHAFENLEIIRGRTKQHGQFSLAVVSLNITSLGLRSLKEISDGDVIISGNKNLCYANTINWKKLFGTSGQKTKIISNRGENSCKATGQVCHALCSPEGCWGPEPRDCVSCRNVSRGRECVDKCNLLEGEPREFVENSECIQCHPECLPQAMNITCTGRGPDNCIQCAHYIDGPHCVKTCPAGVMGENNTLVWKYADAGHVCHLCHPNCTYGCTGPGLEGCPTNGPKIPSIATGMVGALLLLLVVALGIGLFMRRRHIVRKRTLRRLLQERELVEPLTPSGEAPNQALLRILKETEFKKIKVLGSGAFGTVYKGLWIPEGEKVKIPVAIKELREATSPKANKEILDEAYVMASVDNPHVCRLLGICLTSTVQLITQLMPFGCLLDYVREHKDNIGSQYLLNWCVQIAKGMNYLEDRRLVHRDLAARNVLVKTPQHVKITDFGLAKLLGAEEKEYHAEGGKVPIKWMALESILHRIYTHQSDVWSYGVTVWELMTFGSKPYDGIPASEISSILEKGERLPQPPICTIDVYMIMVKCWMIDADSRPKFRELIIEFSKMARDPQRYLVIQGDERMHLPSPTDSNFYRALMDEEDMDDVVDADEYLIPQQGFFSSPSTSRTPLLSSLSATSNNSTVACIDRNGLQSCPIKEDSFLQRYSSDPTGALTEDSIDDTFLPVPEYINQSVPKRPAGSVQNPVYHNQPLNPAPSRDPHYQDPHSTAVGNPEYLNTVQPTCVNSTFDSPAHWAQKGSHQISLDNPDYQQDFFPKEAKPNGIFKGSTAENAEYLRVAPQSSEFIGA

`CCN1CCN(Cc2ccc(NC(=O)c3ccc(C)c(/C=C/c4cnc5[nH]ccc5c4OC)c3)cc2C(F)(F)F)CC1`: the inhibition in test [1] is 25%; in [2] it was 1.4%; in test [3] it was 55%. This compound gave a residual activity in test [4] of 16%. Further, the percent of control in [5] was 0.3%.

On to `CCN1CCN(Cc2ccc(NC(=O)c3ccc(C)c(Oc4ccnc5[nH]ccc45)c3)cc2C(F)(F)F)CC1`, for which the inhibition entry in test [6] and in [7] was “inactive” each time. Besides, the inhibition worked out at 0% in test [8], 13% in [9] and 17.6% in test [10]. The compound also showed a percent of control in test [11] of 0.35%.

In the case of `CNc1cc(Oc2cc(C(=O)Nc3cc(N4CCN(C)CC4)cc(C(F)(F)F)c3)ccc2C)ncn1`, the inhibition stood at 13.8% in [12] and 88.3% in test [13].

Values taken from ChEMBL document CHEMBL5696442, “Discovery of type II inhibitors of TGFβ-activated kinase 1 (TAK1) and mitogen-activated protein kinase kinase kinase kinase 2 (MAP4K2)” (J Med Chem, 2015).
